From patent publication US5202315A, “Cephalosporin compounds” (Lucky, Ltd., priority 1989, dated 1993)
Values after ≈ are worked out from the molar mass of the structure shown.

What was measured:
Assay in all cases: Antibacterial activity, MIC
Assay type in all cases: cell-based
[1] = tested on: Bacillus megaterium ATCC 9885; details: Priestia megaterium, ATCC9885; ATCC 9885; agar two-fold dilution, 37° C., 20 hours; read-out: MIC
Method: (§1) Also, the in vitro antibacterial activity was determined by the by a two-fold dilution method as described below:
(§2) That is, the two-fold serial dilutions of the compound were made dispersed in Muller-Hinton agar medium. 2 μl of standard test strain which had the 10^7 CFU per ml was inoculated on the medium, and was incubated at 37° C. for 20 hours.

[2] = tested on: Proteus vulgaris ATCC 6059; details: ATCC6059, ATCC 6059, agar two-fold dilution, 37° C., 20 hours, read-out: MIC
Method: as §1, §2

[3] = tested on: Proteus mirabilis ATCC 25933; details: ATCC25933, ATCC 25933, agar two-fold dilution, 37° C., 20 hours, read-out: MIC
Method: as §1, §2

[4] = tested on: Shigella sonnei ATCC 11060; details: ATCC11060, ATCC 11060, agar two-fold dilution, 37° C., 20 hours, read-out: MIC
Method: as §1, §2

[5] = tested on: Staphylococcus epidermidis ATCC 12228; details: ATCC12228, ATCC 12228, agar two-fold dilution, 37° C., 20 hours, read-out: MIC
Method: as §1, §2

[6] = tested on: Shigella flexneri ATCC 11836; details: ATCC11836, agar two-fold dilution, 37° C., 20 hours
Method: as §1, §2

[7] = tested on: Serratia marcescens ATCC 27117; details: ATCC27117, ATCC 27117, agar two-fold dilution, 37° C., 20 hours, read-out: MIC
Method: as §1, §2

[8] = tested on: Pseudomonas aeruginosa ATCC 25619; details: ATCC25619, ATCC 25619, agar two-fold dilution, 37° C., 20 hours, read-out: MIC
Method: as §1, §2

[9] = tested on: Klebsiella pneumoniae ATCC 10031; details: ATCC10031, ATCC 10031, agar two-fold dilution, 37° C., 20 hours, read-out: MIC
Method: as §1, §2

[10] = tested on: Citrobacter freundii ATCC 8090; details: ATCC8090, ATCC 8090, agar two-fold dilution, 37° C., 20 hours, read-out: MIC
Method: as §1, §2

[11] = tested on: Staphylococcus aureus ATCC 10537; details: ATCC10537, ATCC 10537, agar two-fold dilution, 37° C., 20 hours, read-out: MIC
Method: as §1, §2

[12] = tested on: Salmonella typhimurium ATCC 14028; details: Salmonella enterica; ATCC 14028; agar two-fold dilution, 37° C., 20 hours; read-out: MIC
Method: as §1, §2

[13] = tested on: Micrococcus luteus ATCC 9341; details: ATCC9341, ATCC 9341, agar two-fold dilution, 37° C., 20 hours, read-out: MIC
Method: as §1, §2

[14] = tested on: Bacillus cereus ATCC 11778; details: ATCC11778, ATCC 11778, agar two-fold dilution, 37° C., 20 hours, read-out: MIC
Method: as §1, §2

[15] = tested on: Pseudomonas aeruginosa ATCC 10145; details: ATCC10145, ATCC 10145, agar two-fold dilution, 37° C., 20 hours, read-out: MIC
Method: as §1, §2

[16] = tested on: Morganella morganii ATCC 8076h; details: ATCC8076H, agar two-fold dilution, 37° C., 20 hours
Method: as §1, §2

[17] = tested on: Pseudomonas aeruginosa ATCC 27853; details: ATCC27853, ATCC 27853, agar two-fold dilution, 37° C., 20 hours, read-out: MIC
Method: as §1, §2

[18] = tested on: Enterobacter aerogenes ATCC 29751; details: Klebsiella aerogenes, ATCC29751; ATCC 29751; agar two-fold dilution, 37° C., 20 hours; read-out: MIC
Method: as §1, §2

[19] = tested on: Escherichia coli ATCC 25922; details: ATCC25922, agar two-fold dilution, 37° C., 20 hours
Method: as §1, §2

[20] = tested on: Providencia rettgeri ATCC 9250; details: ATCC9250, agar two-fold dilution, 37° C., 20 hours
Method: as §1, §2

[21] = tested on: Escherichia coli ATCC 10536; details: ATCC10536, agar two-fold dilution, 37° C., 20 hours
Method: as §1, §2

[22] = tested on: Streptococcus faecalis ATCC 29212; details: Enterococcus faecalis, ATCC29212; ATCC 29212; agar two-fold dilution, 37° C., 20 hours; read-out: MIC
Method: as §1, §2

[23] = tested on: Staphylococcus aureus ATCC 6538p; details: ATCC6538P, ATCC 6538p, agar two-fold dilution, 37° C., 20 hours, read-out: MIC
Method: as §1, §2

[24] = tested on: Acinetobacter calcoaceticus ATCC 15473; details: ATCC15473, ATCC 15473, agar two-fold dilution, 37° C., 20 hours, read-out: MIC
Method: as §1, §2

[25] = tested on: Enterobacter cloacae ATCC 27508; details: ATCC27508, ATCC 27508, agar two-fold dilution, 37° C., 20 hours, read-out: MIC
Method: as §1, §2

| Structure (SMILES) | MIC [1] [µg/mL] | MIC [2] [µg/mL] | MIC [3] [µg/mL] | MIC [4] [µg/mL] | MIC [5] [µg/mL] | MIC [6] [µg/mL] | MIC [7] [µg/mL] | MIC [8] [µg/mL] | MIC [10] [µg/mL] | MIC [11] [µg/mL] | MIC [12] [µg/mL] | MIC [13] [µg/mL] | MIC [14] [µg/mL] | MIC [15] [µg/mL] | MIC [16] [µg/mL] | MIC [17] [µg/mL] | MIC [18] [µg/mL] | MIC [20] [µg/mL] | MIC [21] [µg/mL] | MIC [22] [µg/mL] | other results |
| --- | --- | --- | --- | --- | --- | --- | --- | --- | --- | --- | --- | --- | --- | --- | --- | --- | --- | --- | --- | --- | --- |
| C=CC[n+]1c(N)cc(N)nc1SCC1=C(C(=O)[O-])N2C(=O)C(NC(=O)/C(=N\OC(C)(C)C(=O)O)c3csc(N)n3)C2SC1 (stereo not shown) [Compound I-3] | 0.5 (≈ 0.77 µM) | 0.031 (≈ 0.0477 µM) | 0.031 (≈ 0.0477 µM) | 0.063 (≈ 0.097 µM) | 2 (≈ 3.08 µM) | 0.031 (≈ 0.0477 µM) | 0.13 (≈ 0.2 µM) | 1 (≈ 1.54 µM) | 0.13 (≈ 0.2 µM) | 2 (≈ 3.08 µM) | 0.25 (≈ 0.385 µM) | 0.25 (≈ 0.385 µM) | 64 (≈ 98.5 µM) | 2 (≈ 3.08 µM) | ≤ 0.008 | 2 (≈ 3.08 µM) | 2 (≈ 3.08 µM) | ≤ 0.008 | 0.13 (≈ 0.2 µM) | > 128 | MIC [9]: 0.063 µg/mL (≈ 0.097 µM); MIC [19]: 0.13 µg/mL (≈ 0.2 µM); MIC [23]: 4 µg/mL (≈ 6.16 µM); MIC [24]: 4 µg/mL (≈ 6.16 µM); MIC [25]: 0.031 µg/mL (≈ 0.0477 µM) |
| C=CC[n+]1c(N)cc(N)nc1SCC1=C(C(=O)[O-])N2C(=O)C(NC(=O)/C(=N\OC(C)C(=O)O)c3csc(N)n3)C2SC1 (stereo not shown) [Compound I-6] | 1 (≈ 1.57 µM) | 0.031 (≈ 0.0488 µM) | 0.031 (≈ 0.0488 µM) | 0.063 (≈ 0.0991 µM) | 2 (≈ 3.15 µM) | 0.031 (≈ 0.0488 µM) | 0.13 (≈ 0.204 µM) | 2 (≈ 3.15 µM) | 0.063 (≈ 0.0991 µM) | 2 (≈ 3.15 µM) | 0.25 (≈ 0.393 µM) | 0.25 (≈ 0.393 µM) | 128 (≈ 201 µM) | 4 (≈ 6.29 µM) | ≤ 0.008 | 2 (≈ 3.15 µM) | 1 (≈ 1.57 µM) | ≤ 0.008 | 0.063 (≈ 0.0991 µM) | > 128 | MIC [23]: 4 µg/mL (≈ 6.29 µM); MIC [24]: 4 µg/mL (≈ 6.29 µM); MIC [25]: 0.016 µg/mL (≈ 0.0252 µM) |
| C=CC[n+]1c(N)cc(N)nc1SCC1=C(C(=O)[O-])N2C(=O)C(NC(=O)/C(=N\OCC(=O)O)c3csc(N)n3)C2SC1 (stereo not shown) [Compound I-9] | 0.25 (≈ 0.402 µM) | 0.031 (≈ 0.0499 µM) | 0.031 (≈ 0.0499 µM) | 0.063 (≈ 0.101 µM) | 1 (≈ 1.61 µM) | 0.031 (≈ 0.0499 µM) | 0.063 (≈ 0.101 µM) | 2 (≈ 3.22 µM) | 0.063 (≈ 0.101 µM) | 2 (≈ 3.22 µM) | 0.13 (≈ 0.209 µM) | 0.25 (≈ 0.402 µM) | 64 (≈ 103 µM) | 16 (≈ 25.7 µM) | ≤ 0.008 | 4 (≈ 6.43 µM) | 1 (≈ 1.61 µM) | ≤ 0.008 | 0.031 (≈ 0.0499 µM) | > 128 | MIC [9]: 0.031 µg/mL (≈ 0.0499 µM); MIC [19]: 0.031 µg/mL (≈ 0.0499 µM); MIC [23]: 4 µg/mL (≈ 6.43 µM); MIC [24]: 8 µg/mL (≈ 12.9 µM); MIC [25]: ≤ 0.008 µg/mL |
